Converted amounts (≈) assume the structure as drawn.
Assays:
Assay type in all cases: cell-based
[1] = test system: P. falciparum (K1); assay: Assay 1: anti-malarial in vitro efficacy, P. falciparum K1; details: Plasmodium falciparum; strain K1, assay 1
Method: (§1) The ability of aminopyridine derivatives according to the invention to kill P. falciparum parasites and/or to inhibit its proliferation was tested as follows:
(§2) Assay 1: The protocol used was as described in the supplemental material to Fiddock et al., 2004, Nature Reviews Drug Discovery, (3), p 509. […]

[2] = test system: P. falciparum (Dd2); assay: Assay 2: DAPI imaging assay of parasite replication, P. falciparum Dd2; details: Plasmodium falciparum, strain Dd2, 1.8 μM, 72 hours
Method: as §1
(§3) Assay 2: Compounds were incubated in the presence of 2 or 3% ring stage parasite (P. falciparum 3D7 or Dd2) and 0.3% hematocrite in a total assay volume of 50 μL, for 72 hours in a humidified atmosphere at 37° C., 5% O2 and 5% CO2, in Poly-D-lysine coated Cell Carrier Imaging plates (Perkin Elmer). After incubation plates were stained with DAPI (4′,6-diamidino-2-phenylindole, Invitrogen) in the presence of Saponin and Triton X-100 (Sigma-Aldrich) and incubated for a further 5 hours at RT in the dark before imaging on the OPERATM HTS confocal imaging system (Perkin Elmer). The digital images obtained were then analyzed using the PerkinElmer Acapella spot detection software where spots which fulfil the criteria established for a stained parasite are counted. The % inhibition of parasite replication was calculated using DMSO and 2 μM Artemisinin control data. Measured % inhibition and EC50 (ng/ml) are reported in Tables 5 & 6 below against different strains of P. falciparum K1, NF54 (assay 1) and 3D7, Dd2 (assay 2), respectively).

[3] = test system: P. falciparum (NF54); assay: Assay 1: anti-malarial in vitro efficacy, P. falciparum NF54; details: Plasmodium falciparum; strain NF54, assay 1
Method: as §1, §2

[4] = test system: P. falciparum (3D7); assay: Assay 2: DAPI imaging assay of parasite replication, P. falciparum 3D7; details: Plasmodium falciparum, strain 3D7, 1.8 μM, 72 hours
Method: as §1, §3

Row | Compound | EC50 [1] [µg/mL] | EC50 [3] [µg/mL] | inhibition at 1.8 µM [2] [%] | inhibition at 1.8 µM [4] [%]
1 | COc1ccc(-c2cc(-c3ccc(S(C)(=O)=O)cc3)cnc2N)cn1 [Compound 1, 3-(6-Methoxypyridin-3-yl)-5-(4-methylsulfonylphenyl) pyridin-2-amine] | 0.014 (≈ 0.0394 µM) | – | – | –
2 | CS(=O)(=O)c1ccc(-c2cnc(N)c(-c3cccc(C(F)(F)F)c3)c2)cc1 [Compound 2, 5-(4-methylsulfonylphenyl)-3-[3-(trifluoromethyl)phenyl]pyridin-2-amine] | 0.031 (≈ 0.079 µM) | 0.041 (≈ 0.104 µM) | 96 | 99
3 | CS(=O)(=O)c1ccc(-c2cnc(N)c(-c3cccc(O)c3)c2)cc1 [Compound 3, 3-[2-amino-5-(4-methylsulfonylphenyl)pyridin-3-yl]phenol] | – | – | 94 | 99
4 | COc1cc(-c2cc(-c3ccc(S(C)(=O)=O)cc3)cnc2N)ccc1O [Compound 4, 4-[2-amino-5-(4-methylsulfonylphenyl)pyridin-3-yl]-2-methoxyphenol] | – | – | 96 | 99
5 | CS(=O)(=O)c1ccc(-c2cnc(N)c(-c3ccc(O)cc3)c2)cc1 [Compound 5, 4-[2-amino-5-(4-methylsulfonylphenyl)pyridin-3-yl]phenol] | – | – | 98 | 98
6 | COc1ccc(-c2cnc(N)c(-c3ccc(O)c(OC)c3)c2)cn1 [Compound 6, 4-[2-amino-5-(6-methoxypyridin-3-yl)pyridin-3-yl]-2-methoxyphenol] | – | – | 98 | 98
7 | Cc1cc(-c2cnc(N)c(-c3ccc(N4CCN(C)CC4)cc3)c2)cc(C)c1O [Compound 7, 4-[6-amino-5-[4-(4-methylpiperazin-1-yl)phenyl]pyridin-3-yl]-2,6-dimethylphenol] | – | – | 96 | 93
8 | COc1ccc(-c2cc(-c3ccc(CO)cc3)cnc2N)cn1 [Compound 8, [4-[6-amino-5-(6-methoxypyridin-3-yl)pyridin-3-yl]phenyl]methanol] | – | – | – | 83
9 | CN1CCN(c2ccc(-c3cc(-c4ccc(O)cc4)cnc3N)cc2)CC1 [Compound 9, 4-[6-amino-5-[4-(4-methylpiperazin-1-yl)phenyl]pyridin-3-yl]phenol] | – | – | 53 | 76
10 | CS(=O)(=O)c1ccc(-c2cnc(N)c(-c3cccc(C#N)c3)c2)cc1 [Compound 26, 3-{2-amino-5-[4-(methylsulfonyl)-phenyl]pyridin-3-yl}benzonitrile] | 0.059 (≈ 0.169 µM) | 0.061 (≈ 0.175 µM) | – | –
11 | COc1ncc(-c2cc(-c3ccc(S(C)(=O)=O)cc3)cnc2N)cn1 [Compound 31, 3-(2-methoxypyrimidin-5-yl)-5-[4-(methylsulfonyl)phenyl]pyridin-2-amine] | 0.098 (≈ 0.275 µM) | 0.093 (≈ 0.261 µM) | – | –
12 | CS(=O)(=O)c1ccc(-c2cnc(N)c(-c3cccc(OC(F)(F)F)c3)c2)cc1 [Compound 36, 5-[4-(methysulfonyl)phenyl]-3-[3-(trifluoromethoxy)phenyl] pyridin-2-amine] | 0.074 (≈ 0.181 µM) | 0.078 (≈ 0.191 µM) | – | –
13 | CS(=O)(=O)c1ccc(-c2cnc(N)c(-c3ccc(OC(F)(F)F)cc3)c2)cc1 [Compound 37, 5-[4-(methylsulfonyl)phenyl]-3-[4-(trifluoromethoxy)phenyl]pyridin-2-amine] | 0.097 (≈ 0.238 µM) | 0.099 (≈ 0.242 µM) | – | –
14 | CS(=O)(=O)c1ccc(-c2cnc(N)c(-c3ccnc(C(F)(F)F)c3)c2)cc1 [Compound 42, 3-[2-(trifluoromethyl)pyridin-4-yl]-5-[4-(methylsulfonyl)phenyl] pyridin-2-amine] | 0.061 (≈ 0.155 µM) | 0.071 (≈ 0.18 µM) | – | –
15 | CS(=O)(=O)c1ccc(-c2cnc(N)c(-c3ccc(C(F)(F)F)nc3)c2)cc1 [Compound 44, 3-[2-(trifluoromethyl)pyridin-5-yl]-5-[4-(methylsulfonyl)phenyl] pyridin-2-amine] | 0.01 (≈ 0.0254 µM) | – | – | –
16 | CS(=O)(=O)c1ccc(-c2cnc(N)c(-c3ccc(-n4cccn4)cc3)c2)cc1 [Compound 47, 3-[4-(1H-pyrazol-1-yl)phenyl]-5-[4-(methylsulfonyl)phenyl] pyridin-2-amine] | 0.085 (≈ 0.218 µM) | 0.089 (≈ 0.228 µM) | – | –
17 | CS(=O)(=O)c1ccc(-c2cnc(N)c(-c3cnc(N)nc3)c2)cc1 [Compound 55, 5-{2-amino-5-[4-(methylsulfonyl)-phenyl]pyridin-3-yl}pyrimidin-2-amine] | 0.041 (≈ 0.12 µM) | 0.04 (≈ 0.117 µM) | – | –
18 | CS(=O)(=O)c1ccc(-c2cnc(N)c(-c3ccc4ncccc4c3)c2)cc1 [Compound 59, 5-[4-(methylsulfonyl)phenyl]-3-(quinolin-6-yl) pyridin-2-amine] | 0.098 (≈ 0.261 µM) | 0.107 (≈ 0.285 µM) | – | –
19 | NC(=O)c1ccc(-c2cc(-c3ccc(C(=O)N4CCOCC4)cc3)cnc2N)cc1 [Compound 71, {4-[2-amino-3-(4-carbamoyl phenyl)pyridin-5-yl]phenyl}-(morpholino) methanone] | 0.0068 (≈ 0.0169 µM) | 0.0079 (≈ 0.0196 µM) | – | –
20 | CS(=O)(=O)c1ccc(-c2cnc(N)c(-c3ccc(S(C)(=O)=O)nc3)c2)cc1 [Compound 78, 5-[4-(methylsulfonyl)phenyl]-3-[2-(methylsulfonyl)-pyridin-5-yl]pyridin-2-amine] | 0.11 (≈ 0.273 µM) | 0.094 (≈ 0.233 µM) | – | –
21 | NC(=O)c1ccc(-c2cnc(N)c(-c3ccc(C(N)=O)cc3)c2)cc1 [Compound 80, 4-[2-amino-3-(4-benzamido)pyridin-5-yl]benzamide] | 0.028 (≈ 0.0842 µM) | 0.025 (≈ 0.0752 µM) | – | –

Further lines, with some results ahead:

Row | EC50 [1] [µg/mL] | EC50 [3] [µg/mL] | Compound | inhibition at 1.8 µM [2] [%] | inhibition at 1.8 µM [4] [%]
22 | 0.032 (≈ 0.0795 µM) | 0.031 (≈ 0.077 µM) | CS(=O)(=O)c1ccc(-c2cnc(N)c(-c3ccc(S(C)(=O)=O)cc3)c2)cc1 [Compound 17, 3,5-di-[4-(methylsulfonyl)phenyl]pyridin-2-amine] | – | –
23 | 0.051 (≈ 0.146 µM) | 0.056 (≈ 0.16 µM) | CS(=O)(=O)c1ccc(-c2cnc(N)c(-c3ccc(C#N)cc3)c2)cc1 [Compound 25, 4-{2-amino-5-[4-(methylsulfonyl)-phenyl]pyridin-3-yl}benzonitrile] | – | –
24 | 0.01 (≈ 0.0272 µM) | 0.01 (≈ 0.0272 µM) | CS(=O)(=O)c1ccc(-c2cnc(N)c(-c3ccc(C(N)=O)cc3)c2)cc1 [Compound 28, 4-{2-amino-5-[4-(methylsulfonyl)phenyl]pyridin-3-yl} benzamide] | – | –
25 | 0.026 (≈ 0.0682 µM) | 0.03 (≈ 0.0786 µM) | CNC(=O)c1ccc(-c2cc(-c3ccc(S(C)(=O)=O)cc3)cnc2N)cc1 [Compound 29, 4-{2-amino-5-[4-(methylsulfonyl)-phenyl]pyridin-3-yl}-N-methyl benzamide] | – | –
26 | 0.0098 (≈ 0.0289 µM) | 0.0094 (≈ 0.0277 µM) | Cc1ccc(-c2cc(-c3ccc(S(C)(=O)=O)cc3)cnc2N)cn1 [Compound 43, 3-(2-methylpyridin-5-yl)-5-[4-(methylsulfonyl)phenyl] pyridin-2-amine] | – | –
27 | 0.033 (≈ 0.0975 µM) | 0.034 (≈ 0.1 µM) | Cc1ccc(-c2cc(-c3ccc(S(C)(=O)=O)cc3)cnc2N)cc1 [Compound 65, 5-[4-(methylsulfonyl)phenyl]-3-p-tolylpyridin-2-amine] | – | –
28 | 0.06 (≈ 0.169 µM) | 0.061 (≈ 0.172 µM) | CS(=O)(=O)c1ccc(-c2cnc(N)c(-c3ccc(CO)nc3)c2)cc1 [Compound 69, {5-[2-amino-5-(4-(methylsulfonyl)-phenyl)pyridin-3-yl]pyridin-2-yl}methanol] | – | –
29 | 0.11 (≈ 0.259 µM) | 0.088 (≈ 0.207 µM) | CN(C)CC(=O)Nc1ccc(-c2cc(-c3ccc(S(C)(=O)=O)cc3)cnc2N)cc1 [Compound 75, N-{4-[2-amino-5-(4-(methylsulfonyl)phenyl)pyridin-3-yl]phenyl}-2-(dimethylamino) acetamide] | – | –
30 | 0.046 (≈ 0.12 µM) | 0.047 (≈ 0.123 µM) | CC(=O)Nc1ccc(-c2cc(-c3ccc(S(C)(=O)=O)cc3)cnc2N)cn1 [Compound 79, N-{5-[2-amino-5-(4-(methylsulfonyl)-phenyl)pyridin-3-yl]pyridin-2-yl}acetamide] | – | –
31 | 0.0086 (≈ 0.0219 µM) | 0.0081 (≈ 0.0206 µM) | CS(=O)(=O)c1ccc(-c2cnc(N)c(-c3ccc(C(F)(F)F)cc3)c2)cc1 [Compound 85, 3-[4-(trifluoromethyl)phenyl]-5-[4-(methylsulfonyl)phenyl]pyridin-2-amine] | – | –

— US9024033B2, “Anti-malarial agents” (MMV Medicines for Malaria Venture, priority 2010, dated 2015)
